These results are taken from PubChem BioAssay AID248 (DTP/NCI, 2004).

This assay concerns L1210 leukemia ip in BDF1 mice, survival T/C. The experiment in a line: NCI In Vivo Anticancer Drug Screen. Data for tumor model L1210 Leukemia (intraperitoneal) in B6D2F1 (BDF1) mice. As to conditions: endpoint: mean survival time, higher = longer survival. The essentials: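 Read-out is survival time, reported as the treated-group measurement over the vehicle-control measurement.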

Where [1] appears, read: dose: 50.0 mg/kg/injection, schedule: Q01DX009 (ip), vehicle: saline with Tween-80.
Where [2] appears, read: dose: 100.0 mg/kg/injection, schedule: Q01DX001 (ip), vehicle: Klucel (hydroxypropylcellulose) (HPC).
Where [3] appears, read: dose: 100.0 mg/kg/injection, schedule: Q01DX009 (ip), vehicle: saline with Tween-80.
The mark [4] stands for this setting: dose: 200.0 mg/kg/injection, schedule: Q01DX001 (ip), vehicle: Klucel (hydroxypropylcellulose) (HPC).
The mark [5] stands for this setting: dose: 100.0 mg/kg/injection, schedule: Q01DX001 (ip), vehicle: carboxymethylcellulose (CMC).
Where [6] appears, read: dose: 200.0 mg/kg/injection, schedule: Q01DX001 (ip), vehicle: carboxymethylcellulose (CMC).
Where [7] appears, read: dose: 400.0 mg/kg/injection, schedule: Q01DX001 (ip), vehicle: carboxymethylcellulose (CMC).
Where [8] appears, read: dose: 100.0 mg/kg/injection, schedule: Q01DX001 (ip), vehicle: saline.
Setting [9] is: dose: 200.0 mg/kg/injection, schedule: Q01DX001 (ip), vehicle: saline.
The mark [10] stands for this setting: dose: 400.0 mg/kg/injection, schedule: Q01DX001 (ip), vehicle: saline.

Where “and” joins values, the source holds several entries; their conditions need not be identical. Equal entries are not always repeated. Toxic doses and inconclusive results are not listed. Peptide text beside a SMILES is read from it.

`NCCCCC(N)C(=O)NC(CCCN=C(N)N)C(=O)O` (stereo not drawn) (H-Lys-Arg-OH; configuration not given here): the T/C (dose: 50.0 mg/kg/injection, schedule: Q04DX003 (ip), vehicle: water) is 117 % of control; the T/C (dose: 100.0 mg/kg/injection, schedule: Q01DX009 (ip), vehicle: water) is 108 % of control; the T/C (dose: 100.0 mg/kg/injection, schedule: Q04DX003 (ip), vehicle: water) is 121 % of control; the T/C (dose: 200.0 mg/kg/injection, schedule: Q01DX009 (ip), vehicle: water) is 97 % of control; the T/C (dose: 200.0 mg/kg/injection, schedule: Q04DX003 (ip), vehicle: water) was 111 % of control; the T/C (dose: 400.0 mg/kg/injection, schedule: Q04DX003 (ip), vehicle: water) is 115 % of control.
Turning to `CCN(CC)CCNc1ccc([N+](=O)[O-])cc1[N+](=O)[O-]`, the T/C was 88 % of control under setting [1], 103 % of control under setting [2], 102 % of control under setting [3] and 103 % of control under setting [4].
In the case of `CN(C)C(=S)SC1OC(CO)C(SC(=S)N(C)C)OC1CO` (stereo not drawn), the T/C runs as follows: under setting [1], 97 % of control; under setting [3], 104 % of control; (dose: 200.0 mg/kg/injection, schedule: Q01DX009 (ip), vehicle: saline with Tween-80) 97 % of control.
Consider `CCCCOc1ccc(C(=O)NN)cc1`, for which the T/C by setting is: (dose: 25.0 mg/kg/injection, schedule: Q01DX009 (ip), vehicle: saline with Tween-80) 93 % of control; under setting [1], 102 % of control; under setting [3], 88 % of control.
In the case of `O=[N+]([O-])c1ccc(C(=NO)c2ccc([N+](=O)[O-])cc2)cc1`, the T/C is, setting by setting: under setting [2], 103 % of control; under setting [4], 109 % of control; (dose: 400.0 mg/kg/injection, schedule: Q01DX001 (ip), vehicle: Klucel (hydroxypropylcellulose) (HPC)) 101 % of control.
`C(=N\Nc1nn[nH]n1)/c1ccccc1`: the T/C was 202 % of control under setting [3]; 95 % of control (dose: 100.0 mg/kg/injection, schedule: Q04DX003 (ip), vehicle: saline with Tween-80); 97 % of control (dose: 200.0 mg/kg/injection, schedule: Q04DX003 (ip), vehicle: saline with Tween-80); 103 % of control (dose: 400.0 mg/kg/injection, schedule: Q04DX003 (ip), vehicle: saline with Tween-80).
Take `Cc1cc(N(CCCl)CCCl)ccc1N=Nc1ccccc1C(=O)O`: the T/C is 116 % of control (dose: 3.1 mg/kg/injection, schedule: Q01DX Z (ip), vehicle: carboxymethylcellulose (CMC)); 110 % of control and 111 % of control (dose: 5.0 mg/kg/injection, schedule: Q01DX010 (ip), vehicle: saline); 119 % of control and 122 % of control (dose: 10.0 mg/kg/injection, schedule: Q01DX010 (ip), vehicle: saline); 122 % of control (dose: 18.0 mg/kg/injection, schedule: Q01DX Z (ip), vehicle: carboxymethylcellulose (CMC)); 121 % of control (dose: 20.0 mg/kg/injection, schedule: Q01DX010 (ip), vehicle: saline); 107 % of control (dose: 25.0 mg/kg/injection, schedule: Q01DX Z (ip), vehicle: carboxymethylcellulose (CMC)). Also, the T/C is 114 % of control (dose: 27.0 mg/kg/injection, schedule: Q01DX Z (ip), vehicle: carboxymethylcellulose (CMC)); 88 % of control (dose: 40.0 mg/kg/injection, schedule: Q01DX010 (ip), vehicle: saline); 86 % of control (dose: 40.0 mg/kg/injection, schedule: Q01DX Z (ip), vehicle: carboxymethylcellulose (CMC)).
On to `CN(N=O)C(=O)C(=O)N(C)N=O`, for which the T/C was 109 % of control (dose: 9.0 mg/kg/injection, schedule: Q01DX001 (ip), vehicle: other); 112 % of control (dose: 13.0 mg/kg/injection, schedule: Q01DX001 (ip), vehicle: other); 100 % of control (dose: 15.0 mg/kg/injection, schedule: Q01DX Z (ip), vehicle: saline); 103 % of control (dose: 30.0 mg/kg/injection, schedule: Q01DX Z (ip), vehicle: saline); 92 % of control (dose: 60.0 mg/kg/injection, schedule: Q01DX Z (ip), vehicle: saline); 94 % of control (dose: 120.0 mg/kg/injection, schedule: Q01DX Z (ip), vehicle: saline).
Turning to `On1cnc(=S)c2[nH]cnc21`, the T/C is 98 % of control under setting [5]; 98 % of control under setting [6]; 112 % of control (dose: 250.0 mg/kg/injection, schedule: Q01DX Z (ip), vehicle: carboxymethylcellulose (CMC)); 98 % of control under setting [7]; 100 % of control (dose: 500.0 mg/kg/injection, schedule: Q01DX001 (ip), vehicle: carboxymethylcellulose (CMC)); 113 % of control (dose: 750.0 mg/kg/injection, schedule: Q01DX001 (ip), vehicle: carboxymethylcellulose (CMC)). Also, the T/C was 156 % of control (dose: 750.0 mg/kg/injection, schedule: Q01DX Z (ip), vehicle: carboxymethylcellulose (CMC)) and 117 % of control (dose: 1000.0 mg/kg/injection, schedule: Q01DX001 (ip), vehicle: carboxymethylcellulose (CMC)).
Regarding `CC(=O)Oc1ccc2c(c1)C(=O)CCC=C2`, the T/C is 92 % of control (dose: 50.0 mg/kg/injection, schedule: Q01DX009 (ip), vehicle: other) and 92 % of control (dose: 200.0 mg/kg/injection, schedule: Q01DX009 (ip), vehicle: other).
For `C/C=C(\C)C(=Nc1ccc(Cl)c(Cl)c1)N(C)C`, the T/C is, setting by setting: (dose: 222.0 mg/kg/injection, schedule: Q01DX Z (ip), vehicle: saline) 102 % of control; (dose: 333.0 mg/kg/injection, schedule: Q01DX Z (ip), vehicle: saline) 100 % of control; (dose: 500.0 mg/kg/injection, schedule: Q01DX Z (ip), vehicle: saline) 118 % of control.
For the compound `COC(=O)C12CCC1(Cl)CC2` (stereo not drawn), the T/C runs as follows: under setting [8], 94 % of control; under setting [9], 95 % of control; under setting [10], 100 % of control.
For `O=c1[nH]cc(C2OC(CO)C(O)C2O)c(=O)[nH]1` (stereo not drawn), the T/C (dose: 100.0 mg/kg/injection, schedule: Q01DX005 (ip), vehicle: saline) was 119 % of control and the T/C (dose: 200.0 mg/kg/injection, schedule: Q01DX005 (ip), vehicle: saline) is 97 % of control.
`CCN=C(N)SCCS(=O)(=O)O`: the T/C runs as follows: (dose: 100.0 mg/kg/injection, schedule: Q04DX002 (ip), vehicle: saline) 98 % of control; (dose: 200.0 mg/kg/injection, schedule: Q04DX002 (ip), vehicle: saline) 95 % of control; (dose: 400.0 mg/kg/injection, schedule: Q04DX002 (ip), vehicle: saline) 92 % of control.
With `CC(=O)Nc1ccc(OC(=O)Nc2ccc(F)c([N+](=O)[O-])c2)cc1`, the T/C (dose: 100.0 mg/kg/injection, schedule: Q01DX009 (ip), vehicle: Klucel (hydroxypropylcellulose) (HPC)) was 118 % of control and the T/C (dose: 200.0 mg/kg/injection, schedule: Q01DX009 (ip), vehicle: Klucel (hydroxypropylcellulose) (HPC)) was 112 % of control.
Consider `Cc1nnc2c3ccccc3ccn12`, for which the T/C by setting is: (dose: 50.0 mg/kg/injection, schedule: Q01DX001 (ip), vehicle: saline) 101 % of control; under setting [8], 101 % of control; under setting [9], 103 % of control.
Turning to `COc1ccc(C(=O)CC(C)=O)c(OCc2ccccc2)c1OC`, the T/C is 101 % of control under setting [8], 98 % of control under setting [9] and 104 % of control under setting [10].
Regarding `O=C(CBr)OCC1CC2C=CC1C2` (stereo not drawn), the T/C is 93 % of control (dose: 13.3 mg/kg/injection, schedule: Q01DX Z (ip), vehicle: methylcellulose (MC)); 96 % of control (dose: 20.0 mg/kg/injection, schedule: Q01DX Z (ip), vehicle: methylcellulose (MC)); 90 % of control (dose: 30.0 mg/kg/injection, schedule: Q01DX Z (ip), vehicle: methylcellulose (MC)).
For the compound `Cc1cc(N(CCCl)CCCl)ccc1C=Nc1cc(Br)cc(Br)c1`, the T/C under setting [5] is 101 % of control, the T/C under setting [6] was 110 % of control and the T/C under setting [7] was 108 % of control.
